Laboratory results published in patent publication US20030139616A1, “Method of searching for arteriosclerosis inhibitors and shrinkers” (priority 2000, published 2003).

Experiments:
[1] = test system: foamed macrophages; assay: Intracellular cholesteryl ester content by enzyme method; assay type: cell-based, mouse; conditions: for Content of intracellular cholesteryl esters (control group = 100%) Mean: method of Example 5 (enzyme method); for action on reduction of the cholesteryl ester content: result in words, summary of Tables 4 and 8
Protocol: The mouse peritoneal macrophages prepared in Example 1 were cultured for 24 hours in an RPMI 1640-25 mM HEPES medium (pH 7) containing β-VLDL (150 μg/ml) and a conjugate of 0.2 mM oleic acid/0/2% bovine serum albumin to obtain foam cells in which cholesteryl esters were accumulated. These foamed macrophages were treated with an RPMI 1640-25 mM HEPES medium (pH 7) containing the test compound for 24 hours, and then the whole lipid was extracted. The lipid thus extracted was dissolved in isopropanol and measured for the amounts of the whole cholesterol and free cholesterol by the enzyme method (E-Test Wako, Wako Ltd.), and, from the difference therebetween, the amount of cholesteryl esters was calculated. The amounts of cell protein in a control group and a group treated with the compound were measured with a BCA assay kit from Pierce Ltd. after the cells were solubilized with 0.1 N NaOH/0.1% SDS solution, and assuming that the amount of cholesteryl esters (μg/mg cell protein) in the cells in the control group was 100%, the amount of cholesteryl esters (%) in the group treated with the compound was calculated.
The action of Compound A on reduction of the content of intracellular cholesteryl esters was measured by using the method described in Example 5.

[2] = test system: Mouse peritoneal macrophages; assay: Inhibitory action on synthesis of intracellular cholesteryl esters; assay type: cell-based; conditions: for Content of intracellular cholesteryl esters (control group = 100%) TLC method Mean / Content of intracellular cholesteryl esters (control group = 100%) Methanol method Mean: 24 hours, 25-hydroxycholesterol
Protocol: Mouse peritoneal macrophages prepared in the method described in Example 1 were cultured for 24 hours in an RPMI 1640-25 mM HEPES medium (pH 7) containing 1% fetal bovine serum and [1,2,6,7-^3H]-cholesterol (37 Kbq/ml, NEN Ltd.). The macrophages were labeled with ^3H-cholesterol and then cultured for 24 hours in an RPMI 1640-25 mM HEPES medium (pH 7) containing 2-[6-chloro-4-(2-methylphenyl)-2-oxo-2H-chromene-3-yl]-N-(2,6-dimethoxyphenyl) acetamide (referred to hereinafter as Compound A), 25-hydroxycholesterol (5 μg/ml, Sigma) and 0.2 mM oleic acid/0.2% bovine serum albumin, and the content of synthesized intracellular cholesteryl esters was quantified by the TLC fractionation method or the aqueous methanol extraction method (hereinafter also referred to as the methanol method). The measurement by the TLC fractionation method was conducted by extracting the whole intracellular lipid with a hexane-isopropanol mixture (3:2, v/v) and then fractionating the lipid in TLC under the same conditions as in Example 1 to quantify the intracellular cholesteryl esters. The measurement by the aqueous methanol extraction method was conducted by treating the cells with 80% methanol for 10 minutes, then solubilizing the cells with 0.1 N NaOH/0.1% SDS solution, and measuring their radioactivity. Each value of radioactivity was corrected by the amount of cell proteins measured with a BCA assay kit (Pierce Ltd.) after the cells were solubilized with 0.1 N NaOH/0.1% SDS solution, and assuming that the radioactivity (dpm/mg cell protein) of the control group in the absence of the test compound was 100%, the content of intracellular cholesteryl esters (%) in the group treated with Compound A was calculated.

[3] = test system: foam mouse macrophages; assay: Defoaming-promoting activity (cholesterol efflux into medium); assay type: cell-based; conditions: for Amount of cholesterol transferred (control group = 100%) Mean: method of Example 4; for action on transfer of cholesterol: result in words, summary of Tables 3 and 7
Protocol: The activity of the test compound on defoaming was measured by treating the foam mouse macrophages prepared in Example 1, with RPMI 1640-25 mM HEPES medium (pH 7) containing the test compound for 24 hours, followed by adding 20% fetal bovine serum (JRH Ltd.), and determining the radioactivity released into the medium after further culture for 24 hours. The defoaming-promoting activity of a group treated with the compound was calculated as a ratio (%) of the radioactivity corrected by a blank value to that of a control group. The blank value used was the radioactivity in the absence of the test compound and 20% fetal bovine serum. The defoaming-promoting activities of the control group and the group treated with the compound were corrected by the amount of cell protein measured by the BCA assay kit from Pierce Ltd. after the cells were solubilized with 0.1 N NaOH/0.1% SDS solution.
The promoting action of Compound A on defoaming was measured by using the method described in Example 4.

[4] = test system: Foam cells derived from mouse peritoneal macrophages; assay: Promoting action on decomposition of intracellular cholesteryl esters; assay type: cell-based; conditions: for Content of intracellular cholesteryl esters (control group = 100%) TLC method Mean / Content of intracellular cholesteryl esters (control group = 100%) Methanol method Mean: 48 hours
Protocol: Foam cells derived from mouse peritoneal macrophages, prepared in the method described in Example 1, were cultured for 48 hours in an RPMI 1640-25 mM HEPES medium (pH 7) containing Compound A, and a reduction in the intracellular cholesteryl ester content was quantified by a TLC fractionation method or an aqueous methanol extraction method. The measurement by the TLC fractionation method was conducted by extracting the whole intracellular lipid with a hexane-isopropanol mixture (3:2, v/v) and then fractionating the lipid by TLC under the same conditions as in Example 1 to quantify the intracellular cholesteryl esters. The measurement by the aqueous methanol extraction method was conducted by treating the cells with 80% methanol for 10 minutes, then solubilizing the cells with 0.1 N NaOH/0.1% SDS solution, and measuring their radioactivity. Each value of radioactivity was corrected by the amount of cell proteins measured with a BCA assay kit (Pierce Ltd.) after the cells were solubilized with 0.1 N NaOH/0.1% SDS solution, and assuming that the radioactivity (dpm/mg cell protein) of the control group in the absence of the test compound was 100%, the content of intracellular cholesteryl esters (%) in the group treated with Compound A was calculated.

[5] = test system: foam macrophages; assay: Measurement of regulatory activity on intracellular cholesteryl ester cycle (aqueous methanol extraction); assay type: cell-based, mouse
Protocol: According to the method of Hakamada et al. (“Jikken Igaku (Experimental Medicine), Extra Issue”, vol. 14, No. 12, Circulation Study Protocol, pp. 49-52 (1996)), peritoneal macrophages were prepared from C57BL6J mice stimulated with thioglycolate, and then cultured for 24 hours in RPMI 1640-25 mM HEPES (pH 7) containing β-very low-density lipoprotein (β-VLDL, 150 μg cholesterol/ml) prepared according to the method of Ishii et al. (Arterioscler. Thromb., 12, 1139-1145, 1992), a conjugate of 0.2 mM oleic acid/0.2% bovine serum albumin, and [1,2,6,7-^3H]-cholesterol (NEN, 37 KBq/ml) to obtain foam cells in which cholesteryl esters were accumulated. […] A part of the extract was fractionated by the TLC method (Merck Silica Gel Plate No. 5582, developing solvent: petroleum ether/diethyl ether/acetic acid=9:1:0.1), free cholesterol and cholesteryl ester fractions were cut off, a liquid scintillator was added, and the radioactivity thereof was measured.
In an RPMI 1640-HEPES medium (pH 7) containing the test compound, the foam macrophages prepared in Example 1 were cultured for 24 hours. The cells were extracted with 80% aqueous methanol for 10 minutes and then solubilized with 0.1 NaOH/0.1% SDS solution, a liquid scintillator was added to a portion thereof, and its radioactivity was measured. […]

COc1cccc(OC)c1NC(=O)Cc1c(-c2ccccc2C)c2cc(Cl)ccc2oc1=O [Compound A, 2-[6-chloro-4-(2-methylphenyl)-2-oxo-2H-chromene-3-yl]-N-(2,6-dimethoxyphenyl) acetamide]
Content of intracellular cholesteryl esters (control group = 100%) Mean ([1]; 0.01 mM): 63% | Content of intracellular cholesteryl esters (control group = 100%) Mean ([1]; 0.1 mM): 48% | action on reduction of the cholesteryl ester content [1]: strong action | Content of intracellular cholesteryl esters (control group = 100%) TLC method Mean ([2]; 0.01 mM): 44% | Content of intracellular cholesteryl esters (control group = 100%) Methanol method Mean ([2]; 0.01 mM): 41% | Content of intracellular cholesteryl esters (control group = 100%) TLC method Mean ([2]; 0.03 mM): 16% | Content of intracellular cholesteryl esters (control group = 100%) Methanol method Mean ([2]; 0.03 mM): 19% | Content of intracellular cholesteryl esters (control group = 100%) TLC method Mean ([2]; 0.1 mM): 5% | Content of intracellular cholesteryl esters (control group = 100%) Methanol method Mean ([2]; 0.1 mM): 9% | inhibitory activity on synthesis of cholesteryl esters ([2]; result in words, summary of Table 5): potent inhibitory activity | Amount of cholesterol transferred (control group = 100%) Mean ([3]; 0.01 mM): 142% | Amount of cholesterol transferred (control group = 100%) Mean ([3]; 0.1 mM): 191% | action on transfer of cholesterol [3]: strong action | Content of intracellular cholesteryl esters (control group = 100%) TLC method Mean ([4]; 0.01 mM): 71% | Content of intracellular cholesteryl esters (control group = 100%) Methanol method Mean ([4]; 0.01 mM): 74% | Content of intracellular cholesteryl esters (control group = 100%) TLC method Mean ([4]; 0.1 mM): 8% | Content of intracellular cholesteryl esters (control group = 100%) Methanol method Mean ([4]; 0.1 mM): 14% | promoting activity on degradation of cholesteryl esters ([4]; result in words, summary of Table 6): strong promoting activity

CCCC(=O)Nc1ncnc2c1ncn2[C@@H]1O[C@@H]2COP(=O)(O)O[C@H]2[C@H]1OC(=O)CCC [dbc-AMP, Dibutyryl cyclic AMP, reference compound]
Cholesteryl ester content (%) ([1]; 100 μM, 24 hours, enzyme method, control = 100%): 78 ± 4 p < 0.01 % | action on reduction of the cholesteryl ester content [1]: exerts an action | Cholesteryl ester content (%) ([5]; 100 μM, 24 hours, 80% aqueous methanol extraction, control = 100%): 60 ± 12 p < 0.01 % | cholesteryl ester cycle-regulating action ([5]; result in words, summary of Table 2): potent cholesteryl ester-hydrolytic activity | Amount of cholesterol efflux (%) ([3]; 100 μM, 24 hours then 20% fetal bovine serum 24 hours, control = 100%): 160 ± 15 p < 0.01 % | action on transfer of cholesterol [3]: exerts an action
